{"source": "patent US11766427B2", "about": "“Repurposing compounds for the treatment of infections and for modulating the composition of the gut microbiome” (EUROPEAN MOLECULAR BIOLOGY LABORATORY, priority 2018, dated 2023)", "key": {"[1]": {"system": "40 different bacterial species", "assay": "Prestwick Chemical Library growth screen, whole panel (hits, anticommensal activity)", "type": "cell-based, human gut isolates"}, "[2]": {"system": "Fusobacterium nucleatum (NT5025)", "assay": "Prestwick Chemical Library growth screen (OD578 growth curves, AUC)", "type": "cell-based", "details": "screen at 20 μM"}, "[3]": {"details": "calculated; cited from earlier work"}, "[4]": {"assay": "Estimated gut concentration from administration dose", "details": "estimated from recommended administration dose"}, "[5]": {"system": "22 strains", "assay": "MIC of metformin at higher concentrations", "details": "5/22 strains"}, "[6]": {"details": "cited from earlier work"}}, "note": "Like-named read-outs stand apart in the source and are kept apart here.", "data": [{"smiles": "O=c1cc(-c2ccc(O)c(O)c2)oc2cc(O)cc(O)c12", "note": "[Luteolin]", "values": [{"measurement": "n_hit", "setting": "[1]; number of species inhibited of 40 different bacterial species tested", "result": 1}, {"measurement": "selective inhibition of the growth of Fusobacterium nucleatum (in words)", "setting": "[2]", "result": "selectively inhibiting the growth"}]}, {"smiles": "CN(C)C(=N)N=C(N)N", "note": "[metformin]", "values": [{"measurement": "anticommensal activity in the screen (in words)", "setting": "[1]; 20 μM, 40 strains, FDR<0.01", "result": "did not show anticommensal activity"}, {"measurement": "small intestine concentration relative to plasma concentration", "setting": "[3]", "result": "30-300 fold"}, {"measurement": "estimated gut concentration", "setting": "[4]", "result": 5, "unit": "mM"}, {"measurement": "Minimal Inhibitory Concentration (MIC)", "setting": "[5]", "result": "< 10", "unit": "mM"}]}, {"smiles": "CC[C@@H]([C@H](C)O)n1ncn(-c2ccc(N3CCN(c4ccc(OC[C@@H]5CO[C@@](Cn6cncn6)(c6ccc(F)cc6F)C5)cc4)CC3)cc2)c1=O", "note": "[posaconazole]", "values": [{"measurement": "maximum concentration in the duodenum", "setting": "[6]; 40 mg (57 μmol) delivered to the stomach in acidic solution", "result": "26.3 ± 10.3", "unit": "µM"}, {"measurement": "maximum concentration in the duodenum", "setting": "[6]; 40 mg (57 μmol) delivered to the stomach in neutral solution", "result": "13.6 ± 5.8", "unit": "µM"}]}]}
